{
  "source": "patent US6878546B2",
  "about": "“Product and method for swelling a cell nucleus without DNA replication” (Brandeis University, priority 1993, dated 2005)",
  "key": {"[1]": {"test_system": "Xenopus red blood cells nuclei", "details": "for Cpm Incorporated After X Minutes: 23° C.", "description": "The affect of cAMP on DNA replication in activated Xenopus red blood cells was determined.\nCyclic-AMP was then added to separate aliquots to yield final concentrations of 0.0 μM, 0.1 μM, 1.0 μM, or 10 μM.\nEach aliquot was warmed to 23° C. and sampled over time to determine P^32-dCTP incorporation into replicated DNA. At each time point, a 7 μl aliquot was taken, frozen on dry ice, and later thawed and digested by the addition of 10 μl replication sample buffer (80 mM Tris (pH 8.0), 8 mM EGTA, 0.13% phosphoric acid, 10% Ficoll, 5% SDS, 0.2% bromphenol blue) containing proteinase K (1.0 mg/ml) for 2 hours at room temperature. Incorporated radioactivity was analyzed by electrophoresis on a 0.8% agarose gel (50V, 20 hours) followed by vacuum drying the gel and counting on a Betascope."}, "[2]": {"experiment": "Rate of DNA replication in activating egg extract with nocodazole", "assay_type": "biochemical", "details": "5 μg/ml nocodazole added to activating egg extract"}, "erythrocyte nuclei": {"test_system": "erythrocyte nuclei", "experiment": "Supplements to CSF extract: chromatin assembly and later DNA synthesis in activating egg extract", "assay_type": "biochemical, Xenopus", "excerpt": "After further pretreatment in CSF extract, the nuclei may be activated by adding 9 volumes of “prepared activating egg extract.” DNA replication, measured by incorporation of labelled nucleotides into DNA strands, may be used to determine the extent to which prior treatment in CSF extract enhances nuclear activation in activating extract. Labelled nucleotides useful in measuring nuclear DNA replication include microcurie amounts of P^32-dCTP for radioactive measurement of newly synthesized DNA, 16-50 μM biotinylated-dUTP or BrdUTP for fluorescent measurement of newly synthesized DNA, and 250 μM BrdUTP for density labelling of newly synthesized DNA.\nSeveral supplements to CSF extract, in the proper concentration, increased the ability of CSF extract to enhance activation activity without resulting in premature DNA synthesis activity. Useful supplements include β-glycerol-PO4, Ca^2+, and protein kinase inhibitors. The addition of β-glycerol-PO4 increased the rate at which negatively supercoiled DNA relaxed in CSF extract and was subsequently assembled into chromatin. […] Beta-glycerol-PO4 is an inhibitor of phosphatase activity and may act by increasing the level of the phosphorylated functionally-active form of topoisomerase II in the CSF extract. […]"}, "[3]": {"test_system": "Xenopus erythrocyte nuclei", "experiment": "Induction optimization: P^32-dCTP incorporation into DNA of pretreated nuclei in activating egg extract, cycloheximide added at different times", "assay_type": "biochemical", "details": "total 60 minutes at 25° C.", "description": "Induction optimization was carried for Xenopus as describe below (see also Example 2, infra, for further optimization experiments). Xenopus erythrocyte nuclei were isolated and pretreated with lysolecithin and trypsin as described in Example 2 (described below). An activating egg extract was prepared from hardened eggs which were induced for 10 minutes as described above. Both the activating egg extract and the pretreated nuclei were kept on ice (about 4° C.). The activating egg extract was supplemented with 1 mM ATP (not used in the other examples described herein), 10 μg/ml creatine phosphokinase, 10 mM creatine phosphate, 10 μCi P^32-dCTP and combined with pretreated nuclei (about 200 nuclei/μl). Individual aliquots containing activated nuclei were shifted from 4° C. to 25° C. […] After 60 minutes, P^32-dCTP incorporation into newly synthesized DNA was determined."}, "[4]": {"test_system": "Xenopus red blood cells nuclei", "experiment": "DNA replication in activated nuclei in caffeine supplemented activating egg extract", "assay_type": "biochemical", "details": "caffeine at 1.0 mM in the presence of 0.3 μM cAMP; compared with 0.2 mM and 5.0 mM; FIG. 1", "description": "The experimental conditions used were as described in Example 1 with the following changes: the concentration of cAMP was set at 0.3 μM and caffeine was added to the activating egg extract to a concentration of either 0.2 mM, 1.0 mM, or 5.0 mM."}, "[5]": {"test_system": "Xenopus erythrocyte nuclei", "experiment": "DNA replication in activating egg extract after further pretreatment in CSF extract supplemented with DMAP", "assay_type": "biochemical", "details": "5 mM DMAP in CSF extract; FIG. 2", "description": "Addition of 6-dimethylaminopurine (DMAP) to CSF extracts was used to further pretreat Xenopus erythrocyte nuclei and stimulate subsequent DNA replication in activating egg extract. DMAP can be used to inhibit nucleic acid synthesis and protein kinase activity. Xenopus erythrocyte nuclei were isolated and pretreated as described in Example 1 above, and incubated in thawed “prepared CSF extract” supplemented with 80 mM β-glycerol-PO4, and 5 μg/ml nocodazole at a concentration of 2000 nuclei/μl. Further pretreatment was carried out by incubation for 30 minutes at 4° C., then 30 minutes at 25° C., then 60 minutes at 4° C. Half the samples were supplemented with 5 mM DMAP before addition of the nuclei. After the two hours of incubation, each sample was diluted with 9 volumes of activating egg extract, supplemented with 5 μg/ml nocodazole (this dose of nocodazole slows down the rate of replication) and approximately 160 μCi/ml P^32-dCTP. Aliquots were removed over time to measure DNA replication."}, "[6]": {"test_system": "human fetal liver erythroid cell nuclei", "experiment": "Activation of human fetal liver erythroid cell nuclei in activating extract (swelling, replication, chromosome formation)", "assay_type": "biochemical", "details": "aphidicolin added at T=0", "description": "Step 5: Activation of erythroid cell nuclei. Nuclear swelling, envelope formation, and replication were carried out on human fetal liver erythroid cell nuclei prepared using the optimal conditions described in steps 1-4 above. […] The resulting nuclei concentration was about 200/μl.\nThe following measurement were taken: DNA synthesis was monitored using extract containing P^32dCTP by gel electrophoresis; histone H1 kinase was measured; and samples, labelled with biotinylated-dUTP were taken for cytological analysis of DNA replication and nuclear envelope breakdown.\nExperiments were also carried out to determine whether nuclear swelling was dependent on DNA synthesis, by activating nucleic in the presence of aphidicolin (added at T=0).\nSwelled and replicated nuclei were treated with Cyclin-Δ90 or CSF extract. Cyclin-Δ90 was added to activating extract to obtain prophase mitotic chromosomes, while CSF extract was added to obtain metaphase chromosomes and nuclear envelope breakdown."}},
  "note": "Where two headings read alike, the source gives them in different places.",
  "data": [
    {"molecule": "Nc1ncnc2c1ncn2[C@@H]1O[C@@H]2COP(=O)(O)O[C@H]2[C@H]1O", "note": "[Cyclic AMP, Cyclic-AMP]", "values": [
      {"measurement": "DNA replication in activated nuclei compared to without any cAMP", "setting": "[1]; 0.1 μM cAMP", "result": "increased"},
      {"measurement": "DNA replication in activated nuclei compared to without any cAMP", "setting": "[1]; 1.0 μM cAMP, compared with 0.1 μM", "result": "greater increase"},
      {"measurement": "DNA replication in activated nuclei compared to without any cAMP", "setting": "[1]; 10 μM cAMP", "result": "inhibits DNA replication"},
      {"measurement": "Cpm Incorporated After X Minutes", "setting": "[1]; 0.1 Micromoles of Cyclic AMP Added, after 0 minutes", "result": 14, "unit": "Cpm"},
      {"measurement": "Cpm Incorporated After X Minutes", "setting": "[1]; 0.1 Micromoles of Cyclic AMP Added, after 45 minutes", "result": 51, "unit": "Cpm"},
      {"measurement": "Cpm Incorporated After X Minutes", "setting": "[1]; 0.1 Micromoles of Cyclic AMP Added, after 90 minutes", "result": 68, "unit": "Cpm"},
      {"measurement": "Cpm Incorporated After X Minutes", "setting": "[1]; 0.1 Micromoles of Cyclic AMP Added, after 135 minutes", "result": 290, "unit": "Cpm"},
      {"measurement": "Cpm Incorporated After X Minutes", "setting": "[1]; 0.1 Micromoles of Cyclic AMP Added, after 180 minutes", "result": "1,141 Cpm"},
      {"measurement": "Cpm Incorporated After X Minutes", "setting": "[1]; 0.1 Micromoles of Cyclic AMP Added, after 240 minutes", "result": "2,945 Cpm"},
      {"measurement": "Cpm Incorporated After X Minutes", "setting": "[1]; 0.1 Micromoles of Cyclic AMP Added, after 300 minutes", "result": "2,692 Cpm"},
      {"measurement": "Cpm Incorporated After X Minutes", "setting": "[1]; 1.0 Micromoles of Cyclic AMP Added, after 0 minutes", "result": 10, "unit": "Cpm"},
      {"measurement": "Cpm Incorporated After X Minutes", "setting": "[1]; 1.0 Micromoles of Cyclic AMP Added, after 45 minutes", "result": 14, "unit": "Cpm"},
      {"measurement": "Cpm Incorporated After X Minutes", "setting": "[1]; 1.0 Micromoles of Cyclic AMP Added, after 90 minutes", "result": 56, "unit": "Cpm"},
      {"measurement": "Cpm Incorporated After X Minutes", "setting": "[1]; 1.0 Micromoles of Cyclic AMP Added, after 135 minutes", "result": 564, "unit": "Cpm"},
      {"measurement": "Cpm Incorporated After X Minutes", "setting": "[1]; 1.0 Micromoles of Cyclic AMP Added, after 180 minutes", "result": "2,316 Cpm"},
      {"measurement": "Cpm Incorporated After X Minutes", "setting": "[1]; 1.0 Micromoles of Cyclic AMP Added, after 240 minutes", "result": "4,484 Cpm"},
      {"measurement": "Cpm Incorporated After X Minutes", "setting": "[1]; 1.0 Micromoles of Cyclic AMP Added, after 300 minutes", "result": "5,504 Cpm"},
      {"measurement": "Cpm Incorporated After X Minutes", "setting": "[1]; 10 Micromoles of Cyclic AMP Added, after 0 minutes", "result": 43, "unit": "Cpm"},
      {"measurement": "Cpm Incorporated After X Minutes", "setting": "[1]; 10 Micromoles of Cyclic AMP Added, after 45 minutes", "result": 34, "unit": "Cpm"},
      {"measurement": "Cpm Incorporated After X Minutes", "setting": "[1]; 10 Micromoles of Cyclic AMP Added, after 90 minutes", "result": 31, "unit": "Cpm"},
      {"measurement": "Cpm Incorporated After X Minutes", "setting": "[1]; 10 Micromoles of Cyclic AMP Added, after 135 minutes", "result": 35, "unit": "Cpm"},
      {"measurement": "Cpm Incorporated After X Minutes", "setting": "[1]; 10 Micromoles of Cyclic AMP Added, after 180 minutes", "result": 85, "unit": "Cpm"},
      {"measurement": "Cpm Incorporated After X Minutes", "setting": "[1]; 10 Micromoles of Cyclic AMP Added, after 240 minutes", "result": 168, "unit": "Cpm"},
      {"measurement": "Cpm Incorporated After X Minutes", "setting": "[1]; 10 Micromoles of Cyclic AMP Added, after 300 minutes", "result": 571, "unit": "Cpm"}
    ]},
    {"molecule": "COC(=O)Nc1nc2ccc(C(=O)c3cccs3)cc2[nH]1", "note": "[nocodazole]", "values": [
      {"measurement": "rate of DNA replication", "setting": "[2]", "result": "decreases"}
    ]},
    {"molecule": "O=P(O)(O)OC(CO)CO", "note": "[β-glycerol-PO4]", "values": [
      {"measurement": "chromatin assembly in CSF extract", "setting": "erythrocyte nuclei; about 80 mM β-glycerol-PO4", "result": "aid in chromatin assembly without causing DNA synthesis"}
    ]},
    {"molecule": "C[C@@H]1C[C@@H]([C@H](O)CC2CC(=O)NC(=O)C2)C(=O)[C@@H](C)C1", "note": "[CHM, Cycloheximide]", "values": [
      {"measurement": "Cpm Incorporated into DNA", "setting": "[3]; CHM 100 μg/ml added at 0 minutes, extract from eggs induced 10 minutes", "result": "2,894 Cpm"},
      {"measurement": "Cpm Incorporated into DNA", "setting": "[3]; CHM 100 μg/ml added at 5 minutes", "result": "4,208 Cpm"},
      {"measurement": "Cpm Incorporated into DNA", "setting": "[3]; CHM 100 μg/ml added at 15 minutes", "result": "4,937 Cpm"},
      {"measurement": "Cpm Incorporated into DNA", "setting": "[3]; CHM 100 μg/ml added at 30 minutes", "result": "3,775 Cpm"},
      {"measurement": "Cpm Incorporated into DNA", "setting": "[3]; CHM 100 μg/ml added at 45 minutes", "result": "2,314 Cpm"}
    ]},
    {"molecule": "Cn1c(=O)c2c(ncn2C)n(C)c1=O", "note": "[caffeine]", "values": [
      {"measurement": "initial rate and extent of DNA replication in activated nuclei", "setting": "[4]", "result": "highest initial rate and extent of DNA replication"}
    ]},
    {"molecule": "[Ca+2].[Cl-].[Cl-]", "note": "[Ca^2+, CaCl2]", "values": [
      {"measurement": "amount and rate of DNA synthesis in erythrocyte nuclei after addition of activating egg extract", "setting": "erythrocyte nuclei; 100 μM Ca^2+ added to CSF extract", "result": "increased both the amount and the rate of DNA synthesis"}
    ]},
    {"molecule": "CN(C)c1ncnc2nc[nH]c12", "note": "[DMAP, 6-dimethylaminopurine]", "values": [
      {"measurement": "initial rate and total amount of DNA synthesis", "setting": "[5]", "result": "increased"},
      {"measurement": "lag time before the onset of replication", "setting": "[5]", "result": "decreased"}
    ]},
    {"molecule": "C[C@@]1(CO)[C@H](O)CC[C@@]2(C)[C@H]1CC[C@H]1C[C@@H]3C[C@@]12CC[C@]3(O)CO", "note": "[aphidicolin]", "values": [
      {"measurement": "replication (biotin labelling)", "setting": "[6]", "result": "no replication took place"},
      {"measurement": "nuclear swelling", "setting": "[6]; absence of replication", "result": "many nuclei swelled significantly"}
    ]}
  ]
}
